The values that follow come from patent US5849770A, “Tri-substituted phenyl derivatives useful as PDE IV inhibitors” (Celltech Therapeutics Ltd., priority 1995, dated 1998).

Structures can show the parent of a compound that is named as a salt.

A short description of data set [1]: Plasma levels after oral administration to squirrel monkeys. Type of data set: in vivo. The following applies: monkey, 10 mg/kg p.o., after 30 min, read-out: plasma level. As for the experimental part:
The same two compounds were also administered orally to squirrel monkeys at 10 mg/kg p.o,. and the plasma levels of each determined. After 1 h the […] compound was present at 1 μg/ml whereas after 30 min the compound of Example 1 was present at 34 μg/ml, thus illustrating the good oral availability of the compound.

The nature of data set [2]: Rat hepatocyte metabolism. Type of data set: in vitro ADME. As to conditions: rat hepatocytes, after 3 h; read-out: percentage of compound remaining. As for the experimental part: The quantity of compound remaining after a fixed period of time was then determined using mass spectroscopy.
Thus in one such test the compound of Example 1 was compared with a related compound particularly described in International Patent Specification No. WO94/14742 in which the phenylsulphonyl group in the compound of Example 1 is replaced by a hydrogen atom. After 3 h the percentage of each compound remaining was: […]

Data set [3] has as its target T1, human PDE IVA (Homo sapiens, UniProt P27815).
T1 construct: made in house; host or cells: yeast (inducible vector)
As to the kind of experiment: Isolated recombinant human PDE IVA enzyme, phosphodiesterase activity. Type of data set: biochemical. The following applies: 0.1 μM [3H]-cAMP, pH 7.5, 30° C. From the text:
A gene encoding human PDE IV has been cloned from human monocytes (Livi, et al., 1990, Molecular and Cellular Biology, 10, 2678). Using similar procedures we have cloned human PDE IV genes from a number of sources including eosinophils, neutrophils, lymphocytes, monocytes, brain and neuronal tissues. These genes have been transfected into yeast using an inducible vector and various recombinant proteins have been expressed which have the biochemical characteristics of PDE IV (Beavo and Reifsnyder, 1990, TIPS, 11, 150). These recombinant enzymes, particularly the human eosinophil recombinant PDE IVA, have been used as the basis of a screen for potent, selective PDE IV inhibitors.
The enzymes were purified to isoenzyme homogeneity using standard chromatographic techniques.
Phosphodiesterase activity was assayed as follows. The reaction was conducted in 150 μl of standard mixture containing (final concentrations): 50 mM 2-[[tris(hydroxymethyl)methyl]amino]-1-ethanesulphonic acid (TES) --NaOH buffer (pH 7.5), 10 mM MgCl2, 0.1 μM [^3 H]-cAMP and vehicle or various concentrations of the test compounds. The reaction was initiated by addition of enzyme and conducted at 30° C. for between 5 to 30 min. The reaction was terminated by addition of 50 μl 2% trifluoroacetic acid containing [^14 C]-5'AMP for determining recovery of the product. An aliquot of the sample was then applied to a column of neutral alumina and the [^3 H]-cAMP eluted with 10 ml 0.1 TES-NaOH buffer (pH8). The [^3 H]-5'-AMP product was eluted with 2 ml 2M NaOH into a scintillation vial containing 10 ml of scintillation cocktail. Recovery of [^3 H]-5'AMP was determined using the [^14 C]-5'AMP and all assays were conducted in the linear range of the reaction. Results were expressed as IC50 values.

T1 sequence (P27815 whole entry): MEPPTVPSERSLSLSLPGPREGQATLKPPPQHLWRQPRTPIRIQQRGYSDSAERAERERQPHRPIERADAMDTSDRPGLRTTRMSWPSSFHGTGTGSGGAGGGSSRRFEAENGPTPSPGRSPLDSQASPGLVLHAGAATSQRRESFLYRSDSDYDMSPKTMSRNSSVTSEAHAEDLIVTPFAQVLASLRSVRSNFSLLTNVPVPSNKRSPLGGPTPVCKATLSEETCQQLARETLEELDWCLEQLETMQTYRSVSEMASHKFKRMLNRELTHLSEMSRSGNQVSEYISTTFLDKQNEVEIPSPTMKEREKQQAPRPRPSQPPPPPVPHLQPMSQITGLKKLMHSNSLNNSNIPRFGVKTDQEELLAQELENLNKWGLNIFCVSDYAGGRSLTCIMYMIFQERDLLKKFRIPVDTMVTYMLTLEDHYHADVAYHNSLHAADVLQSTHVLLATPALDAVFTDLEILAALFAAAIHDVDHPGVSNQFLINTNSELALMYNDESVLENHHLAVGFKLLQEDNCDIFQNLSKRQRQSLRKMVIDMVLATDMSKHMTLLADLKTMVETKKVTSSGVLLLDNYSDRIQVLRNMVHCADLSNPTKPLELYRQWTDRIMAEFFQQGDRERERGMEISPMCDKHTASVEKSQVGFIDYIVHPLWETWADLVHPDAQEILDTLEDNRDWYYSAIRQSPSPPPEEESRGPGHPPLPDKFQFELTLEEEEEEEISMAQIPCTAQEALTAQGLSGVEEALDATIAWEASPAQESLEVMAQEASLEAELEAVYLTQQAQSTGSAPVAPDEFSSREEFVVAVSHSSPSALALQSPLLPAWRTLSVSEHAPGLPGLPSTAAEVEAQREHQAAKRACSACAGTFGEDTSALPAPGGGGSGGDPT

Turning to `COc1ccc([C@H](Cc2ccncc2)c2ccc(NC(=O)NS(=O)(=O)c3ccccc3)cc2)cc1OC1CCCC1` [Example 1, (R)-N-[4-{1-(3-Cyclopentyloxy-4-methoxyphenyl)-2-(4-pyridyl)ethyl}-phenyl]-N'-(phenylsulphonyl) urea, hydrochloride], the concentration at 0.5 h in data set [1] turned out to be 34000 ng/mL. Further, the share remaining (usually the share of the starting amount still present when the sample was taken) at 3 h in data set [2] was 56%. Besides, the half-maximal inhibitory concentration (IC50) – broadly, the concentration that gives 50% inhibition – in data set [3] came to 4 nM.

With `COc1ccc([C@H](Cc2ccncc2)c2ccc(NC(=O)NS(=O)(=O)c3ccc(C)cc3)cc2)cc1OC1CCCC1` [Example 2, (R)-N-[4-{1-(3-Cyclopentyloxy-4-methoxyphenyl)-2-(4-pyridyl)ethyl}-phenyl]-N'-(methylphenylsulphonyl) urea, hydrochloride], the IC50 in data set [3] was 13.9 nM. Same read-out and setting: then `COc1ccc([C@H](Cc2ccncc2)c2ccc(NC(=O)NS(=O)(=O)c3ccc(Cl)cc3)cc2)cc1OC1CCCC1` [Example 3, (R)-N-[4-{1-(3-Cyclopentyloxy-4-methoxyphenyl)-2-(4-pyridyl)ethyl}-phenyl]-N'-(4-chlorophenylsulphonyl) urea, hydrochloride], with 17.6 nM.
